According to publication PMC10882719 (Frontiers in Neuroscience, 2024):
Read-outs that look alike come from different tables or passages of the source.

Assays:
Assay type in all cases: cell-based
[1] = target: T1, 168 GPCRs (Homo sapiens, UniProt Q15077); details: P2RY6
T1 construct: host or cells: PathHunter cell lines

[2] = target: T2, 168 GPCRs (Homo sapiens, UniProt Q9P296)
T2 construct: host or cells: PathHunter cell lines

[3] = target: T3, 168 GPCRs (Homo sapiens, UniProt P32246)
T3 construct: host or cells: PathHunter cell lines
T3 sequence (P32246 1-355): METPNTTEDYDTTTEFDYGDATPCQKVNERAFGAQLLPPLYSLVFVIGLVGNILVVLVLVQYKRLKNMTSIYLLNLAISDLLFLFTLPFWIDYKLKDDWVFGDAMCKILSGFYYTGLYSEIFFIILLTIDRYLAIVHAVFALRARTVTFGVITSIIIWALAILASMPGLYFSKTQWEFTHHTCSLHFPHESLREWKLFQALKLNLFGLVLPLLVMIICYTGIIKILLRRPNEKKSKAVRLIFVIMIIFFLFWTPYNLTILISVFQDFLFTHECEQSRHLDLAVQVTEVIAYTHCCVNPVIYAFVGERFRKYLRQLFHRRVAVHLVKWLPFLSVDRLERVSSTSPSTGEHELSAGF

[4] = target: T4, 168 GPCRs (Homo sapiens, UniProt P30988)
T4 construct: host or cells: PathHunter cell lines
T4 sequence (P30988 25-474): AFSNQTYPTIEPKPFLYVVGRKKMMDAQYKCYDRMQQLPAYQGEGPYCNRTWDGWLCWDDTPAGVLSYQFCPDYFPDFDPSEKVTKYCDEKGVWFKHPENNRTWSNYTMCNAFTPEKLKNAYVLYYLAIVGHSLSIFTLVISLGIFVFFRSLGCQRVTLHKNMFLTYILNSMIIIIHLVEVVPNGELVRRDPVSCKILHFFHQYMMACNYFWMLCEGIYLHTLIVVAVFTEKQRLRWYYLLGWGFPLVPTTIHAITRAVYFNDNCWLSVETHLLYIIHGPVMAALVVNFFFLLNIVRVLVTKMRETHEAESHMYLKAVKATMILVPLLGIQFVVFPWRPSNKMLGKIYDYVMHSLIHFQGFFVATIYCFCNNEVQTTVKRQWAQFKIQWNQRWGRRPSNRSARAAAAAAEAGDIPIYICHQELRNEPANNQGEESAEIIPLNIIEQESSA

[5] = target: T5, 168 GPCRs (Homo sapiens, UniProt P08908); details: HTR1A
T5 construct: host or cells: PathHunter cell lines
T5 sequence (P08908 1-422): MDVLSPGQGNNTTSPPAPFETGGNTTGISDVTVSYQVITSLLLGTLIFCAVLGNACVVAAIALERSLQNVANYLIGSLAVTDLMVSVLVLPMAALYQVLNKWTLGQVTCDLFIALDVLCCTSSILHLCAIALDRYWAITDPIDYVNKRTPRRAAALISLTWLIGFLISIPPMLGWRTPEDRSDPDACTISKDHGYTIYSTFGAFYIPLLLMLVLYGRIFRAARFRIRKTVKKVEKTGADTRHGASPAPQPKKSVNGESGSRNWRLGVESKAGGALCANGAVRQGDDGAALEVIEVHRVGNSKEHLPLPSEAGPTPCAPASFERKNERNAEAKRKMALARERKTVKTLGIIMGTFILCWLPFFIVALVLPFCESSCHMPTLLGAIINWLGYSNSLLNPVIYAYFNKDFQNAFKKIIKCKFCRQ

[6] = target: T6, 168 GPCRs (Homo sapiens, UniProt P30989); details: NTSR1
T6 construct: host or cells: PathHunter cell lines

[7] = target: T7, 168 GPCRs (Homo sapiens, UniProt P21728)
T7 construct: host or cells: PathHunter cell lines

[8] = test system: 168 GPCRs

T2 sequence (Q9P296 whole entry): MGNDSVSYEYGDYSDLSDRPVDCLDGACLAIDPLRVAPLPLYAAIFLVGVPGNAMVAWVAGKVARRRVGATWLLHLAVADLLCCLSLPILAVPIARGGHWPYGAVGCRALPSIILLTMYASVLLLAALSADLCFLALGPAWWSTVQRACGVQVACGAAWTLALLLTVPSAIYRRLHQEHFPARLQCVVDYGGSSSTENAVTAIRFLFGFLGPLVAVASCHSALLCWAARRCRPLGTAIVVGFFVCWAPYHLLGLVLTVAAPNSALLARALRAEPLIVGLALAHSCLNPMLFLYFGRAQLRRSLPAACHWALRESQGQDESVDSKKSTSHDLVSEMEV
T6 sequence (P30989 whole entry): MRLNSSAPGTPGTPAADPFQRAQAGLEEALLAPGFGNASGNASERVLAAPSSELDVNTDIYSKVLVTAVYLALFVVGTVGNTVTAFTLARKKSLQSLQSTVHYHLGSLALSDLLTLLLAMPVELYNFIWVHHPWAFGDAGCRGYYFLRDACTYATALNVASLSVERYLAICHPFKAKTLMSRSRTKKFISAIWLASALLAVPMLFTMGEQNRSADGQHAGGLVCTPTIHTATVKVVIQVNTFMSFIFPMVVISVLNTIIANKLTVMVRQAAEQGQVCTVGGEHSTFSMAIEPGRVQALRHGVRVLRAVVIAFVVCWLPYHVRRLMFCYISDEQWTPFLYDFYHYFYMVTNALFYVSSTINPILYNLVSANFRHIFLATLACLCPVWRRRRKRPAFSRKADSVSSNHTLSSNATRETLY
T7 sequence (P21728 whole entry): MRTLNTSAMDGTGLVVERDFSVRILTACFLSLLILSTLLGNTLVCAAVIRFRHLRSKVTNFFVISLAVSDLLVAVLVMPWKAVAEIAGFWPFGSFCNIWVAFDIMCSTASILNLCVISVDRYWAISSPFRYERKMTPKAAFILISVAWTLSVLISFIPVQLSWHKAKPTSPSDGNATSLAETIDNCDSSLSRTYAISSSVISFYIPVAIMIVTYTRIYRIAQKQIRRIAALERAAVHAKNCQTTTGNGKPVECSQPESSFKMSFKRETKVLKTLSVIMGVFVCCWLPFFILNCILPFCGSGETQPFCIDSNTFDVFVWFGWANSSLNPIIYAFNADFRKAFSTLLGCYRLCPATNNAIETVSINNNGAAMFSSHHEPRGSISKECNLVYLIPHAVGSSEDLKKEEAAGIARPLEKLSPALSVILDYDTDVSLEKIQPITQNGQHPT
T1 sequence (Q15077 whole entry): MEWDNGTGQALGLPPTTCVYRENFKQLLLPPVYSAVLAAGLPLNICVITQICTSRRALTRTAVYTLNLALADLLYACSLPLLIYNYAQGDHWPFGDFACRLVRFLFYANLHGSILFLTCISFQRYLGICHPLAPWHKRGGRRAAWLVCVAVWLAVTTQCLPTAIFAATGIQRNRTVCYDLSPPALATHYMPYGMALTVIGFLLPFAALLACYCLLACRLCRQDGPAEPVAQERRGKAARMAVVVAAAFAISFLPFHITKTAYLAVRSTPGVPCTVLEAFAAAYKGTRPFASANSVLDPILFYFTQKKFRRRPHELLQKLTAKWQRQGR

CNC(C)Cc1ccc2c(c1)OCO2 (stereo not drawn) [MDMA, 3,4-Methylenedioxy methamphetamine, reference compound]
% Agonist Activity ([1]; Conc 1 uM): 4.9%
% Antagonist Activity ([1]; Conc 1 uM): 2.5%
% Agonist Activity ([1]; Conc 10 uM): 4.6%
% Antagonist Activity ([1]; Conc 10 uM): 1.2%
% Agonist Activity ([2]; C5L2, 1 uM): 7.7%
% Antagonist Activity ([2]; C5L2, 1 uM): -5.5%
% Agonist Activity ([2]; C5L2, 10 uM): 3.3%
% Antagonist Activity ([2]; C5L2, 10 uM): -4%
% Agonist Activity ([3]; CCR1, 1 uM): 13.6%
% Antagonist Activity ([3]; CCR1, 1 uM): -13%
% Agonist Activity ([3]; CCR1, 10 uM): 6.2%
% Antagonist Activity ([3]; CCR1, 10 uM): -7.6%
% Agonist Activity ([4]; CALCR, 1 uM): -3.5%
% Antagonist Activity ([4]; CALCR, 1 uM): -8.1%
% Agonist Activity ([4]; CALCR, 10 uM): -2.4%
% Antagonist Activity ([4]; CALCR, 10 uM): 6.8%
% Agonist Activity ([4]; CALCR-RAMP2, 1 uM): -0.3%
% Antagonist Activity ([4]; CALCR-RAMP2, 1 uM): 12.8%
% Agonist Activity ([4]; CALCR-RAMP2, 10 uM): 2.9%
% Antagonist Activity ([4]; CALCR-RAMP2, 10 uM): 15.7%
% Agonist Activity ([4]; CALCR-RAMP3, 1 uM): -18.3%
% Antagonist Activity ([4]; CALCR-RAMP3, 1 uM): -3.6%
% Agonist Activity ([4]; CALCR-RAMP3, 10 uM): -1.4%
% Antagonist Activity ([4]; CALCR-RAMP3, 10 uM): -1.3%
% Agonist Activity ([5]; 1 uM): 1.1%
% Antagonist Activity ([5]; 1 uM): -5.1%
% Agonist Activity ([5]; 10 uM): 2.4%
% Antagonist Activity ([5]; 10 uM): -0.9%
% Agonist Activity ([6]; Conc 1 uM): -0.8%
% Antagonist Activity ([6]; Conc 1 uM): 8.7%
% Agonist Activity ([6]; Conc 10 uM): 1.2%
% Antagonist Activity ([6]; Conc 10 uM): 0.5%
% Agonist Activity ([7]; DRD1, 1 uM): -1%
% Antagonist Activity ([7]; DRD1, 1 uM): -0.5%
% Agonist Activity ([7]; DRD1, 10 uM): -0.8%
% Antagonist Activity ([7]; DRD1, 10 uM): 6%
% Agonist Activity ([8]; DRD2S, 1 uM): 1.6%
% Antagonist Activity ([8]; DRD2S, 1 uM): 5.8%
% Agonist Activity ([8]; DRD2S, 10 uM): 1.9%
% Antagonist Activity ([8]; DRD2S, 10 uM): 14.7%
% Agonist Activity ([8]; NPSR1B, Conc 1 uM): -3.8%
% Antagonist Activity ([8]; NPSR1B, Conc 1 uM): 4.3%
% Agonist Activity ([8]; NPSR1B, Conc 10 uM): -5.1%
% Antagonist Activity ([8]; NPSR1B, Conc 10 uM): 5%

CNC(C)C(=O)c1ccc2c(c1)OCO2 (stereo not drawn) [methylone]
% Agonist Activity ([1]; Conc 1 uM): 4.5%
% Antagonist Activity ([1]; Conc 1 uM): 6.5%
% Agonist Activity ([1]; Conc 10 uM): 2.4%
% Antagonist Activity ([1]; Conc 10 uM): 2.6%
% Agonist Activity ([2]; C5L2, 1 uM): 8.4%
% Antagonist Activity ([2]; C5L2, 1 uM): 10%
% Agonist Activity ([2]; C5L2, 10 uM): 12.9%
% Antagonist Activity ([2]; C5L2, 10 uM): 1.4%
% Agonist Activity ([3]; CCR1, 1 uM): -2.6%
% Antagonist Activity ([3]; CCR1, 1 uM): -8.1%
% Agonist Activity ([3]; CCR1, 10 uM): 3.6%
% Antagonist Activity ([3]; CCR1, 10 uM): -16.6%
% Agonist Activity ([4]; CALCR, 1 uM): -0.3%
% Antagonist Activity ([4]; CALCR, 1 uM): 5.4%
% Agonist Activity ([4]; CALCR, 10 uM): -0.2%
% Antagonist Activity ([4]; CALCR, 10 uM): -4.4%
% Agonist Activity ([4]; CALCR-RAMP2, 1 uM): 0.9%
% Antagonist Activity ([4]; CALCR-RAMP2, 1 uM): -10.6%
% Agonist Activity ([4]; CALCR-RAMP2, 10 uM): 1.6%
% Antagonist Activity ([4]; CALCR-RAMP2, 10 uM): -19.6%
% Agonist Activity ([4]; CALCR-RAMP3, 1 uM): 7.9%
% Antagonist Activity ([4]; CALCR-RAMP3, 1 uM): -8.9%
% Agonist Activity ([4]; CALCR-RAMP3, 10 uM): 7.1%
% Antagonist Activity ([4]; CALCR-RAMP3, 10 uM): -3.3%
% Agonist Activity ([5]; 1 uM): 0.8%
% Antagonist Activity ([5]; 1 uM): -5.2%
% Agonist Activity ([5]; 10 uM): -0.1%
% Antagonist Activity ([5]; 10 uM): -6.4%
% Agonist Activity ([6]; Conc 1 uM): -4.7%
% Antagonist Activity ([6]; Conc 1 uM): -0.7%
% Agonist Activity ([6]; Conc 10 uM): -3.5%
% Antagonist Activity ([6]; Conc 10 uM): -1.7%
% Agonist Activity ([7]; DRD1, 1 uM): -1.6%
% Antagonist Activity ([7]; DRD1, 1 uM): 6%
% Agonist Activity ([7]; DRD1, 10 uM): -1.6%
% Antagonist Activity ([7]; DRD1, 10 uM): 7.8%
Agonist activity at any of 168 GPCRs ([8]; 1 or 10 μM, threshold 30% activity): no significant agonist activity
Antagonist activity at any GPCR ([8]; 1 or 10 μM, threshold 50% inhibition): no significant antagonist activity
% Agonist Activity ([8]; DRD2S, 1 uM): 0%
% Antagonist Activity ([8]; DRD2S, 1 uM): 3.6%
% Agonist Activity ([8]; DRD2S, 10 uM): 0.6%
% Antagonist Activity ([8]; DRD2S, 10 uM): -11.6%
% Agonist Activity ([8]; NPSR1B, Conc 1 uM): -1.3%
% Antagonist Activity ([8]; NPSR1B, Conc 1 uM): -10.6%
% Agonist Activity ([8]; NPSR1B, Conc 10 uM): 4.8%
% Antagonist Activity ([8]; NPSR1B, Conc 10 uM): -7.6%
